Where only a bound is given, the exact number is not on record here.

Consider 32 compounds from patent US20080051387A1, “TETRAHYDROPYRIDO[3,4-D]PYRIMIDINES AND RELATED ANALOGUES” (priority 2006, published 2008).

The test has as its target T1, chimeric human H3 receptor (Homo sapiens, UniProt Q9Y5N1).
T1 construct: rat Galpha-i2 (Gnai2, rat); made in house; host or cells: Sf9 insect cells (baculovirus); P2 membranes
As to the kind of experiment: Chimeric human H3 receptor screening GTP binding assay (inhibition of histamine-stimulated GTP-gamma35S binding, Example 8). It counts as biochemical. As to conditions: symbol ! in Ki; test compound 4 μM, 1 μM histamine; read-out: percent inhibition of agonist-induced GTP-gammaS binding to H3. The procedure:
This Example illustrates a representative screening assay for evaluating inhibition of histamine-stimulated GTP-gamma^35S binding. Such GTP binding activity can be used to identify H3 antagonists and inverse agonists. A compound analyzed in this assay is referred to herein as a “test compound,” and the initial identification of antagonists and inverse agonists is performed using a test compound concentration of 4 μM.
Four independent baculoviral stocks (one directing the expression of the chimeric human H3 receptor and three directing the expression of each of the three subunits of a heterotrimeric G-protein) are used to infect a culture of Sƒ9 cells as described above. P2 membranes are prepared as described above, and are resuspended by Dounce homogenization (tight pestle) in GTP binding assay buffer (50 mM Tris pH 7.4, 120 mM NaCl, 5 mM MgCl2, 2 mM EGTA, 1 mg/ml BSA, 0.2 mg/ml bacitracin, 0.02 mg/ml aprotinin, 0.01 mg/ml saponin, 10 μM GDP) and added to assay tubes at a concentration of 35 μg protein/reaction tube. Non-radiolabeled test compounds are added to separate reactions at a concentration of 4 μM along with 1 μM histamine (agonist). Reactions are initiated by the addition of 125 pM GTP-gamma^35S with a final assay volume of 0.20 ml.
After a 60-min incubation at room temperature, reactions are terminated by vacuum filtration over GF/C filters (pre-soaked in 50 mM Tris pH 7.4, 120 mM NaCl plus 0.1% BSA) followed by washing with ice-cold buffer (50 mM Tris pH 7.4, 120 mM NaCl). The amount of receptor-bound (and thereby membrane-bound) GTP-gamma^35S is determined by measuring the bound radioactivity, preferably by liquid scintillation spectrometry of the washed filters. Non-specific binding is determined using 10 uM GTP-gammaS and typically represents less than 5 percent of total binding. After subtraction of non-specific binding, data is expressed as percent inhibition of 1 μM histamine signal.
Neutral antagonists are those test compounds that reduce the histamine-stimulated GTP binding activity towards, but not below, baseline levels. In contrast, in the absence of added histamine, inverse agonists reduce the GTP binding activity of the receptor-containing membranes below baseline. Any test compound that elevates GTP binding activity above baseline in the absence of added histamine in this assay is defined as having agonist activity.

T1 sequence (Q9Y5N1 with tags, fused parts or gaps): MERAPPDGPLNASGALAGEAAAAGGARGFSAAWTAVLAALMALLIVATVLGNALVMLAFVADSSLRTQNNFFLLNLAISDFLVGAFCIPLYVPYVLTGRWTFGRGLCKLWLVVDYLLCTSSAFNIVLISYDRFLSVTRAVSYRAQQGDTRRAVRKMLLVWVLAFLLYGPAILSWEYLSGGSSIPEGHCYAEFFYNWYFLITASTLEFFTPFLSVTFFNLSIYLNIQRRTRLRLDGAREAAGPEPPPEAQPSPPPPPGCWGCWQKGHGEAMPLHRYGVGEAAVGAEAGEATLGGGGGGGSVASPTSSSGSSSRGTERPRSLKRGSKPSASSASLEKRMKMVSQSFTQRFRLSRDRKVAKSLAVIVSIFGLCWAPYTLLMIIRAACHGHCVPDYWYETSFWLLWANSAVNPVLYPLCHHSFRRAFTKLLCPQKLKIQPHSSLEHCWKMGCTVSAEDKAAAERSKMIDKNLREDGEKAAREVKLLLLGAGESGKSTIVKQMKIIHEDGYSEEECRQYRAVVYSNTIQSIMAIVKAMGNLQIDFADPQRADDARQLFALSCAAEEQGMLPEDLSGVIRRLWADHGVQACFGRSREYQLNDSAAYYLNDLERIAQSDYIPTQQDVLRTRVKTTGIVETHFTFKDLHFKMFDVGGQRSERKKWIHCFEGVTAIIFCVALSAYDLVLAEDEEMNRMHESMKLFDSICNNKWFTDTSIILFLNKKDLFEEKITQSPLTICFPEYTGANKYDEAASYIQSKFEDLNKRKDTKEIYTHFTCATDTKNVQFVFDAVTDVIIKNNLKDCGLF

What is called inhibition is the drop in the measured response relative to a control, in per cent. Consider `Cc1ccc(C)c(C(=O)N2CCc3c(ncnc3N3CCN(C4CCC4)CC3)C2)c1` [Compound 64, 4-(4-cyclobutylpiperazin-1-yl)-7-(2,5-dimethylbenzoyl)-5,6,7,8-tetrahydropyrido[3,4-d]pyrimidine], for which the inhibition at 4 µM is not below 90%.
In the case of `COCCOCC(=O)N1CCc2c(ncnc2N2CCN(C3CCC3)CC2)C1` [Compound 65, 4-(4-cyclobutylpiperazin-1-yl)-7-[(2-methoxyethoxy)acetyl]-5,6,7,8-tetrahydropyrido[3,4-d]pyrimidine] it was not below 90%.
For `Fc1ccccc1CN1CCc2c(ncnc2N2CCN(C3CCC3)CC2)C1` [Compound 66, 4-(4-cyclobutylpiperazin-1-yl)-7-(2-fluorobenzyl)-5,6,7,8-tetrahydropyrido[3,4-d]pyrimidine] the value was not below 90%.
Take `Fc1cccc(CN2CCc3c(ncnc3N3CCN(C4CCC4)CC3)C2)c1` [Compound 67, 4-(4-cyclobutylpiperazin-1-yl)-7-(3-fluorobenzyl)-5,6,7,8-tetrahydropyrido[3,4-d]pyrimidine]: the inhibition at 4 µM was not below 90%.
Regarding `Fc1ccc(CN2CCc3c(ncnc3N3CCN(C4CCC4)CC3)C2)cc1` [Compound 68, 4-(4-cyclobutylpiperazin-1-yl)-7-(4-fluorobenzyl)-5,6,7,8-tetrahydropyrido[3,4-d]pyrimidine], the inhibition at 4 µM is not below 90%.
Consider `Cc1cccc(CN2CCc3c(ncnc3N3CCN(C4CCC4)CC3)C2)c1` [Compound 69, 4-(4-cyclobutylpiperazin-1-yl)-7-(3-methylbenzyl)-5,6,7,8-tetrahydropyrido[3,4-d]pyrimidine], for which the inhibition at 4 µM is not below 90%.
For `Cc1ccc(CN2CCc3c(ncnc3N3CCN(C4CCC4)CC3)C2)cc1` [Compound 70, 4-(4-cyclobutylpiperazin-1-yl)-7-(4-methylbenzyl)-5,6,7,8-tetrahydropyrido[3,4-d]pyrimidine] the value was not below 90%; for `Cn1ccnc1CN1CCc2c(ncnc2N2CCN(C3CCC3)CC2)C1` [Compound 71, 4-(4-cyclobutylpiperazin-1-yl)-7-[(1-methyl-1H-imidazol-2-yl)methyl]-5,6,7,8-tetrahydropyrido[3,4-d]pyrimidine], not below 90%.
For `c1ccc2c(CN3CCc4c(ncnc4N4CCN(C5CCC5)CC4)C3)ccnc2c1` [Compound 72, 4-(4-cyclobutylpiperazin-1-yl)-7-(quinolin-4-ylmethyl)-5,6,7,8-tetrahydropyrido[3,4-d]pyrimidine] the value was not below 90%.
For `c1ccc2ncc(CN3CCc4c(ncnc4N4CCN(C5CCC5)CC4)C3)cc2c1` [Compound 73, 4-(4-cyclobutylpiperazin-1-yl)-7-(quinolin-3-ylmethyl)-5,6,7,8-tetrahydropyrido[3,4-d]pyrimidine] the value was not below 90%.
For the compound `Cc1cccc(CN2CCc3c(ncnc3N3CCN(C4CCC4)CC3)C2)n1` [Compound 74, 4-(4-cyclobutylpiperazin-1-yl)-7-[(6-methylpyridin-2-yl)methyl]-5,6,7,8-tetrahydropyrido[3,4-d]pyrimidine], the inhibition at 4 µM is not below 90%.
With `c1cncc(CN2CCc3c(ncnc3N3CCN(C4CCC4)CC3)C2)c1` [Compound 75, 4-(4-cyclobutylpiperazin-1-yl)-7-(pyridin-3-ylmethyl)-5,6,7,8-tetrahydropyrido[3,4-d]pyrimidine], the inhibition at 4 µM is not below 90%.
Regarding `c1nc2c(c(N3CCN(C4CCC4)CC3)n1)CCN(Cc1ccc(N3CCOCC3)nc1)C2` [Compound 76, 4-(4-cyclobutylpiperazin-1-yl)-7-[(6-morpholin-4-ylpyridin-3-yl)methyl]-5,6,7,8-tetrahydropyrido[3,4-d]pyrimidine], the inhibition at 4 µM was not below 90%.
In the case of `Cc1cc(CN2CCc3c(ncnc3N3CCN(C4CCC4)CC3)C2)n(C)n1` [Compound 77] it was not below 90%; in that of `COc1ccccc1CN1CCc2c(ncnc2N2CCN(C3CCC3)CC2)C1` [Compound 78, 4-(4-cyclobutylpiperazin-1-yl)-7-(2-methoxybenzyl)-5,6,7,8-tetrahydropyrido[3,4-d]pyrimidine], not below 90%; in that of `COc1ccc(CN2CCc3c(ncnc3N3CCN(C4CCC4)CC3)C2)c(OC)c1` [Compound 79, 4-(4-cyclobutylpiperazin-1-dimethoxybenzyl)-5,6,7,8-tetrahydropyrido[3,4-d]pyrimidine], not below 90%.
In the case of `CC(C)c1ccc(CN2CCc3c(ncnc3N3CCN(C4CCC4)CC3)C2)cc1` [Compound 80] it was not below 90%; in that of `CCN1CCc2c(ncnc2N2CCN(C3CCC3)CC2)C1` [Compound 81, 4-(4-cyclobutylpiperazin-1-yl)-7-ethyl-5,6,7,8-tetrahydropyrido[3,4-d]pyrimidine], not below 90%; in that of `CC(C)CCN1CCc2c(ncnc2N2CCN(C3CCC3)CC2)C1` [Compound 82, 4-(4-cyclobutylpiperazin-1-yl)-7-(3-methylbutyl)-5,6,7,8-tetrahydropyrido[3,4-d]pyrimidine], not below 90%.
For `CCCCN1CCc2c(ncnc2N2CCN(C3CCC3)CC2)C1` [Compound 83, 7-butyl-4-(4-cyclobutylpiperazin-1-yl)-5,6,7,8-tetrahydropyrido[3,4-d]pyrimidine], the inhibition at 4 µM is not below 90%.
As to `CCCCCN1CCc2c(ncnc2N2CCN(C3CCC3)CC2)C1` [Compound 84, 4-(4-cyclobutylpiperazin-1-yl)-7-pentyl-5,6,7,8-tetrahydropyrido[3,4-d]pyrimidine], the inhibition at 4 µM is not below 90%.
In the case of `CCCCCCN1CCc2c(ncnc2N2CCN(C3CCC3)CC2)C1` [Compound 85, 4-(4-cyclobutylpiperazin-1-yl)-7-hexyl-5,6,7,8-tetrahydropyrido[3,4-d]pyrimidine] it was not below 90%; in that of `CC(C)CN1CCc2c(ncnc2N2CCN(C3CCC3)CC2)C1` [Compound 86, 4-(4-cyclobutylpiperazin-1-yl)-7-isobutyl-5,6,7,8-tetrahydropyrido[3,4-d]pyrimidine], not below 90%; in that of `CCC(C)CN1CCc2c(ncnc2N2CCN(C3CCC3)CC2)C1` (centres unmarked) [Compound 87, 4-(4-cyclobutylpiperazin-1-yl)-7-(2-methylbutyl)-5,6,7,8-tetrahydropyrido[3,4-d]pyrimidine], not below 90%.
For `CCC(CC)CN1CCc2c(ncnc2N2CCN(C3CCC3)CC2)C1` [Compound 88, 4-(4-cyclobutylpiperazin-1-yl)-7-(2-ethylbutyl)-5,6,7,8-tetrahydropyrido[3,4-d]pyrimidine] the value was not below 90%.
As to `c1nc2c(c(N3CCN(C4CCC4)CC3)n1)CCN(CC1CC1)C2` [Compound 89, 4-(4-cyclobutylpiperazin-1-yl)-7-(cyclopropylmethyl)-5,6,7,8-tetrahydropyrido[3,4-d]pyrimidine], the inhibition at 4 µM is not below 90%.
As to `CCCC(C)CN1CCc2c(ncnc2N2CCN(C3CCC3)CC2)C1` (centres unmarked) [Compound 90, 4-(4-cyclobutylpiperazin-1-yl)-7-(2-methylpentyl)-5,6,7,8-tetrahydropyrido[3,4-d]pyrimidine], the inhibition at 4 µM was not below 90%.
For the compound `Cc1ccc(CN2CCc3c(ncnc3N3CCN(C4CCC4)CC3)C2)cc1C` [Compound 91, 4-(4-cyclobutylpiperazin-1-yl)-7-(3,4-dimethylbenzyl)-5,6,7,8-tetrahydropyrido[3,4-d]pyrimidine], the inhibition at 4 µM is not below 90%.
For the compound `c1nc2c(c(N3CCN(C4CCC4)CC3)n1)CCN(Cc1ccc3c(c1)OCCO3)C2` [Compound 92, 4-(4-cyclobutylpiperazin-1-yl)-7-(2,3-dihydro-1,4-benzodioxin-6-ylmethyl)-5,6,7,8-tetrahydropyrido[3,4-d]pyrimidine], the inhibition at 4 µM is not below 90%.
For `c1ccc2nc(CN3CCc4c(ncnc4N4CCN(C5CCC5)CC4)C3)ccc2c1` [Compound 93, 4-(4-cyclobutylpiperazin-1-yl)-7-(quinolin-2-ylmethyl)-5,6,7,8-tetrahydropyrido[3,4-d]pyrimidine], the inhibition at 4 µM is not below 90%.
Turning to `COc1cccc(CN2CCc3c(ncnc3N3CCN(C4CCC4)CC3)C2)c1OC` [Compound 94, 4-(4-cyclobutylpiperazin-1-yl)-7-(2,3-dimethoxybenzyl)-5,6,7,8-tetrahydropyrido[3,4-d]pyrimidine], the inhibition at 4 µM is not below 90%.
For the compound `COc1ccc(OC)c(CN2CCc3c(ncnc3N3CCN(C4CCC4)CC3)C2)c1` [Compound 95, 4-(4-cyclobutylpiperazin-1-yl)-7-(2,5-dimethoxybenzyl)-5,6,7,8-tetrahydropyrido[3,4-d]pyrimidine], the inhibition at 4 µM was not below 90%.
